Entries after “also recorded” stand apart in the source; their conditions may differ. Read-outs that look alike come from different tables or passages of the source.
What was measured:
Format in all cases: cell-based, human
HUVEC = experiment: Cell survival in serum-free medium (MTS); design: effect of inhibitor on cell survival of control cells: dose or concentration left out as unconfirmed
Experimental: Endothelial cells were plated into gelatin coated 96 well microtitre trays at 3×10^3 cells per well in serum-free medium. MTS (Promega, WI, USA) was used to measure cell viability. Optical density at 490 nm was measured on Day 0, Day 1, Day 2, and Day 3.
Cell survival was measured in serum-free medium supplemented with ECGs and in non-tissue culture non-adhesive trays coated with 1% bovine serum albumin under serum free culture conditions.

VCAM-1 = VCAM-1 cell surface expression (FACS)
Experimental: (§1) Flow cytometric analysis of cell surface expression of E-Selectin and VCAM-1 was performed as previously described (11) using 10 μg/ml mouse monoclonal primary antibodies to E-Selectin (49-1B11) or VCAM-1 (51-10C9) generated in our laboratory (Gamble J R, Khew-Goodall Y, Vadas M A. (1993) supra). Secondary antibodies used were anti-mouse fluorescein-isothiocyanate, or for GFP-expressing cells, goat anti-mouse IgG R-phycoerythrin conjugate (Southern Biotech Birmingham, Ala., USA). The median fluorescence intensity was determined using a Coulter Epics Profile XL flow cytometer.

PECAM-1 [1] = experiment: PECAM-1 expression (flow cytometry, Western blot); conditions: normal HUVEC
Experimental: SDS-polyacrylamide gel electrophoresis was performed as described (Pitson S M, Moretti P A, Zebol J R, Xia P, Gamble J R, Vadas M A et al. (2000) J Biol Chem; 275(43):33945-33950) on cell lysates using 12% acrylamide gels. […] The membrane was incubated with horseradish peroxidase-conjugated anti-mouse IgG or anti-rabbit IgG (Pierce) and immunocomplexes were detected using enhanced chemiluminescence (Amersham Pharmacia Biotech).
Flow cytometric analysis of cell surface expression of PECAM-1 and VE-Cadherin was performed as previously described (Xia P, Gamble J R, Rye K A, Wang L, Hii C S, Cockerill P et al. (1998) supra) using 10 µg/ml mouse monoclonal primary antibodies to PECAM-1 (51-6F6) or VE-Cadherin (55-7H1) generated in our laboratory (Gamble J R, Khew-Goodall Y, Vadas M A. (1993) J Immunol; 150(10):4494-4503). […] The median fluorescence intensity was determined using a Coulter Epics Profile XL flow cytometer. FAC S analysis of the cell surface expression of CD34 was done by incubating 1×10^6 cells with […] of anti-CD34, R-phycoerythrin (R-PE)-conjugated mouse anti-human mAb (BD Pharmingen, San Diego, Calif.) for 30 minutes at room temperature, and then determining the median fluorescence intensity.

PECAM-1 [2] = experiment: PECAM-1 phosphorylation (Western blot); conditions: data not shown
Experimental: SDS-polyacrylamide gel electrophoresis was performed as described (Pitson S M, Moretti P A, Zebol J R, Xia P, Gamble J R, Vadas M A et al. (2000) J Biol Chem; 275(43):33945-33950) on cell lysates using 12% acrylamide gels. Proteins were transferred to PVDF membranes, blocked in 5% low fat milk in PBS with 0.1% Tween20 for one hour, and incubated overnight at 4 C with M2 mouse anti-FLAG antibody (Sigma, St Louis, Mo.), rabbit polyclonal anti-phospho-Akt (Cell Signaling Technology), rabbit polyclonal anti-Akt (Cell Signaling Technology), anti-phosphotyrosine (Cell Signaling Technology), or for one hour at room temperature with mouse anti-cyclin D1 or cyclin E (Santa Cruz Biotechnology) or mouse monoclonal antibody directed to PECAM-1 (51-6F6) raised at The Hanson Institute, Adelaide, Australia. The membrane was incubated with horseradish peroxidase-conjugated anti-mouse IgG or anti-rabbit IgG (Pierce) and immunocomplexes were detected using enhanced chemiluminescence (Amersham Pharmacia Biotech).

E-Selectin = experiment: E Selectin cell surface expression (FACS)
Experimental: as §1

[3] = 5 μM for four hours, SK and EV cells
[4] = pertussis toxin 50 ng/ml 18 hours, then TNFα 0.5 ng/ml four hours, control cells or SK cells
[5] = pertussis toxin 50 ng/ml, cells over-expressing SK or EV

Compound: COc1cccc(-c2cc(=O)c3ccccc3o2)c1N [PD98059]
- effect of inhibitor on cell survival of control cells (HUVEC; EV cells, Day 2): significantly reduced cell survival

Compound: CCCCCCCCCCCCC/C=C/[C@@H](O)[C@@H](N)COP(=O)(O)O [S1P]
- VCAM-1 expression after exogenous SIP (VCAM-1; [3]): up-regulation
- PECAM-1 expression after exogenous S1P (PECAM-1 [1]): did not induce PECAM-1 expression; also recorded: had no effect
- PECAM-1 phosphorylation status after exogenous S1P (PECAM-1 [2]): had no effect
- E Selectin expression after exogenous SIP (E-Selectin; [3]): up-regulation

Compound: N#CC(=C(/N)Sc1ccccc1N)/C(C#N)=C(\N)Sc1ccccc1N [U0126]
- effect of inhibitor on cell survival of control cells (HUVEC): significantly reduced cell survival

Compound: pertussis toxin
- effect of pretreatment on adhesion molecule response to exogenous SIP (VCAM-1; SK and EV cells, adhesion molecule (VCAM-1 / E Selectin) not specified): inhibited
- effect of pre-treatment on TNFα-induced VCAM-1 expression (VCAM-1; [4]): did not alter
- effect on basal or TNFα-induced VCAM-1 expression (VCAM-1; [5]): did not inhibit
- effect on SK-mediated cell survival (HUVEC; pertussis toxin 50 ng/ml, HUVEC over-expressing SK): not inhibited
- effect of pre-treatment on TNFα-induced E Selectin expression (E-Selectin; [4]): did not alter
- effect on basal or TNFα-induced E Selectin expression (E-Selectin; [5]): did not inhibit

From patent publication US20060205688A1, “Method of modulating epithelial cell activity by modulating the functional levels of sphingosine kinase” (priority 2002, published 2006)
